How the values were obtained:
[1] = tested on: A. fumigatus; test: Conidial viability bioassay (30 min incubation, colony enumeration); type: cell-based, Aspergillus fumigatus; set-up: key: —: No viability reduction observed
Experimental: (§1) Bioassays were performed as described earlier (De Lucca et al. 2002, 2006b, supra). The test fungi (Aspergillus flavus, A. niger, A. fumigatus, Fusarium oxysporum, F. solani, and F. verticilioides (formerly F. moniliforme) were grown on potato dextrose agar (Difco, Detroit, Mich.) slants for seven days (30° C.). When needed, conidia were suspended in 1% potato dextrose broth (Difco, Detroit, Mich.), pH 5.2 (PDB). Using a hemocytometer, stock suspension concentrations were determined and final (working) concentrations of 3×10^4 conidia/ml were prepared. Following preparation of the conidia, a sample of nongerminated conidia was immediately used in the bioassay to determine the effect of the saponins on nongerminated conidia. An additional conidial sample for each fungus was incubated for 8 hr at 30° C. These conidia were used in bioassays to determine activity of the saponins against germinating conidia.
(§2) Individual bioassays consisted of conidia (25 μl), PDB, and the appropriate amount of a mixture of CAY-1, 1081 and 919. The CAY-1 control (CAY-1 alone) bioassays measuring the fungicidal response against the same fungi were performed in a similar manner. Final test volumes were 250 μl. […]
(§3) Statistical analyses were performed on the data using SigmaStat 3.1 (Systat, Point Richmond, Calif.). Significance (p<0.001) was determined between viability control and test saponin data.

[2] = tested on: fungi of agricultural and medical importance; conditions: pure saponin; De Lucca et al. 2002, 2006b and others; cited from earlier work
[3] = tested on: Fusarium species; test: Conidial viability bioassays, Fusarium species; type: cell-based; conditions: nongerminated conidia of the tested Fusarium isolates
Experimental: as §1
(§4) Individual bioassays consisted of conidia (25 μl), PDB, and the appropriate amount of a mixture of CAY-1, 1081 and 919. The CAY-1 control (CAY-1 alone) bioassays measuring the fungicidal response against the same fungi were performed in a similar manner. Final test volumes were 250 μl. Controls consisted of conidia and PDB medium.
After a 30 min incubation period (30° C.), aliquots (50 μl) of each sample were spread on each of four potato dextrose agar plates. […]

[4] = tested on: A. niger; test: Conidial viability bioassay (30 min incubation, colony enumeration); type: cell-based, Aspergillus niger; set-up: key to Lowest concentration showing significant (p < 0.001) viability reduction: CAY-1 Control / Total Weight of mixture: —: No viability reduction observed; conditions: for Lowest concentration showing significant (p < 0.001) viability reduction: CAY-1 Control / Total Weight of mixture: 30 min incubation; for Reduction of conidial viability / fungicidal activity (in words): FIG. 2C
Experimental: as §1, §4
(§5) After a 30 min incubation period (30° C.), aliquots (50 μl) of each sample were spread on each of four potato dextrose agar plates. The plates were incubated for 48 hours at 30° C., followed by colony enumeration. Three separate runs per conidial type and fungus were performed (n=12).
as §3

[5] = tested on: F. solani; test: as above; type: cell-based, Fusarium solani; set-up: key to Lowest concentration showing significant (p < 0.001) viability reduction: CAY-1 Control / Total Weight of mixture: —: No viability reduction observed; conditions: for Lowest concentration showing significant (p < 0.001) viability reduction: CAY-1 Control / Total Weight of mixture: 30 min incubation; for Reduction of conidial viability / fungicidal activity (in words): FIG. 2F
Experimental: as §1, §4, §5, §3

[6] = tested on: germinating conidia of A. flavus; conditions: within five minutes of the initiation of incubation; De Lucca et al., 2002; cited from earlier work
[7] = tested on: F. verticilioides (formerly F. moniliforme); test: Conidial viability bioassay (30 min incubation, colony enumeration); type: cell-based, Fusarium verticilioides; set-up: key to Lowest concentration showing significant (p < 0.001) viability reduction: CAY-1 Control / Total Weight of mixture: —: No viability reduction observed; conditions: for Lowest concentration showing significant (p < 0.001) viability reduction: CAY-1 Control / Total Weight of mixture: 30 min incubation
Experimental: as §1, §4, §5, §3

[8] = tested on: Aspergillus flavus, A. fumigatus and A. niger; conditions: in vitro; De Lucca et al. 2006a; cited from earlier work
[9] = tested on: germinating conidia of A. flavus; test: Time of fungicidal activity (time course study); type: cell-based, Aspergillus flavus; conditions: after 5 minutes of incubation; total weight 12.67 μg/ml (4:3:3: 12.64 μg/ml)
Experimental: as §1, with “Detroit, Mich.) […] for seven” for “Detroit, Mich.) slants for seven”, “germinating conidia. Individual bioassays consisted of conidia (25 μl), PDB, and the appropriate amount of a mixture of CAY-1, 1081 and 919. The CAY-1 control (CAY-1 alone) bioassays measuring the fungicidal response against the same fungi were performed in a similar manner. Final test volumes were 250 μl. […] Time of fungicidal activity for the saponin mixtures was determined by using the germinating conidia of A. flavus. […] Significance (p<0.001) was determined between viability control and test saponin data.” for “germinating conidia.”

[10] = tested on: Fusarium oxysporum; test: Conidial viability bioassay (30 min incubation, colony enumeration); type: cell-based; set-up: key: —: No viability reduction observed
Experimental: as §1, §2, §3

[11] = tested on: Aspergillus flavus; test: as above; type: cell-based; set-up: key to Lowest concentration showing significant (p < 0.001) viability reduction: CAY-1 Control / Total Weight of mixture: —: No viability reduction observed; conditions: for Lowest concentration showing significant (p < 0.001) viability reduction: CAY-1 Control / Total Weight of mixture: 30 min incubation; for Reduction of conidial viability / fungicidal activity (in words): FIG. 2A
Experimental: as §1, §4, §5, §3

[12] = germinating conidia, listed as CAY-1 control
[13] = germinating conidia, listed as CAY-1 controls

For `CC1CCC2(OC1)OC1CC3C4CCC5CC(OC6OC(CO)C(OC7OC(CO)C(O)C(OC8OC(CO)C(O)C(OC9OC(CO)C(O)C(O)C9O)C8O)C7OC7OC(CO)C(O)C(O)C7O)C(O)C6O)C(O)CC5(C)C4CCC3(C)C1C2C` (stereo not shown) [CAY-1], the “Lowest concentration showing significant (p < 0.001) viability reduction: CAY-1 Control / Total Weight of mixture” value ([1]; germinating conidia) is listed as “—”, the “Lowest concentration showing significant (p < 0.001) viability reduction: CAY-1 Control / Total Weight of mixture” value ([1]; nongerminated conidia) is listed as “—” and the “Antifungal properties (in words)” value [2] is listed as “potent fungicidal properties”. For the same molecule, the “Reduction of conidial viability (in words)” value [3] was “not reduced”, the “Lowest concentration showing significant (p < 0.001) viability reduction: CAY-1 Control / Total Weight of mixture” value ([4]; germinating conidia) was 6.62 µg/mL and the “Reduction of conidial viability / fungicidal activity (in words)” value ([4]; germinating conidia) was “No major differences”. The “Reduction of conidial viability / fungicidal activity (in words)” value [4, 12] was “significantly (p<0.001) lower viability counts”, the “Reduction of conidial viability / fungicidal activity (in words)” value [4, 13] was “significant viability loss” and the “Lowest concentration showing significant (p < 0.001) viability reduction: CAY-1 Control / Total Weight of mixture” value ([4]; nongerminated conidia) was “—”. For the same molecule, the “Lowest concentration showing significant (p < 0.001) viability reduction: CAY-1 Control / Total Weight of mixture” value ([5]; germinating conidia) was 12.43 µg/mL, the “Reduction of conidial viability / fungicidal activity (in words)” value ([5]; germinating conidia) was “significantly fungicidal” and the “Reduction of conidial viability / fungicidal activity (in words)” value [5, 13] was “significant viability loss”. For the same molecule, the “Lowest concentration showing significant (p < 0.001) viability reduction: CAY-1 Control / Total Weight of mixture” value ([5]; nongerminated conidia) was “—”, the “Dose producing significant lethality” value [6] was 12.4 µg/mL and the “Lowest concentration showing significant (p < 0.001) viability reduction: CAY-1 Control / Total Weight of mixture” value ([7]; germinating conidia) was “—”. The “Reduction of conidial viability / fungicidal activity (in words)” value ([7]; germinating conidia, FIG. 2D) was “inactive”, the “Lowest concentration showing significant (p < 0.001) viability reduction: CAY-1 Control / Total Weight of mixture” value ([7]; nongerminated conidia) was “—” and the “Interaction with Amphotericin B and intraconazole” value [8] was “additive synergy”. The “Activity (in words)” value [9] was “inactive”, the “Lowest concentration showing significant (p < 0.001) viability reduction: CAY-1 Control / Total Weight of mixture” value ([10]; germinating conidia) was “—” and the “Lowest concentration showing significant (p < 0.001) viability reduction: CAY-1 Control / Total Weight of mixture” value ([10]; nongerminated conidia) was “—”. For the same molecule, the “Lowest concentration showing significant (p < 0.001) viability reduction: CAY-1 Control / Total Weight of mixture” value ([11]; germinating conidia) was 4.97 µg/mL, the “Reduction of conidial viability / fungicidal activity (in words)” value [11, 12] was “significantly (p<0.001) lower viability counts” and the “Reduction of conidial viability / fungicidal activity (in words)” value [11, 13] was “significant viability loss”. The “Lowest concentration showing significant (p < 0.001) viability reduction: CAY-1 Control / Total Weight of mixture” value ([11]; nongerminated conidia) was “—^#”.
